# Source: US20210236487A1, “Methods and Compositions for Treatment of Cancer with PARP Inhibitors” (Rush University Medical Center, priority 2018, published 2021)
# Values joined by “and” are separate entries in the source; they are usually repeats but may differ in a detail not shown here. Equal entries are not always repeated. “Also recorded” adds a separate entry of the source.
# Experiments:
# [1] = Hellman, 1964; cited from earlier work
# [2] = Response to folic acid supplementation in patients on olaparib; format: in vivo, human; conditions: for Response to folic acid supplementation: on olaparib
# Method: (§1) A formal assessment of folic acid level along with a chart review of olaparib treated ovarian cancer patients was conducted to determine the frequency of severe folic acid deficiency in this population and the impact of replacement therapy on outcome. This was an IRB-approved study performed at Rush University Medical Center from Dec. 1, 2016 to Apr. 3, 2017. Data collection was conducted in accordance with good clinical practice guidelines and the provisions of declaration of Helsinki. Data collected included cancer history, date of initiation of olaparib, duration of olaparib use, CBC data, peripheral smear/RBC morphology data, Vitamin B12, folic acid levels, iron studies with ferritin, reticulocyte count, LDH levels, haptoglobin levels, TSH levels, any treatment administered for hematological toxicities including nutritional supplementation or blood product transfusion, dose reductions or cessation of olaparib use and indication for such intervention were collected for all patients.
# [3] = cited from earlier work
# [4] = Hematologic toxicity (Hgb, MCV, other abnormalities, transfusion, dose reduction) in olaparib-treated patients (chart review / case series); format: in vivo, human; conditions: for Transfusion requirement: secondary to anemia noted after administration of Olaparib; for Transfusion required: secondary to anemia noted while patient receiving olaparib
# Method: as §1
# ovarian cancer = experiment: Treatment outcome on olaparib (case series); format: in vivo, human
# Method: as §1
# [5] = Serum folic acid level in olaparib-treated cancer patients (chart review / case series); format: in vivo, human; conditions: for Folic Acid Level: on olaparib, reference range 7.0-31.4 ng/mL
# Method: as §1
# [6] = tested on: gBRCA-mutated advanced ovarian cancer; conditions: Phase II trials, cited from earlier work
# [7] = Table 1, patient/age c1 A/61, c2 B/78, c3 C/63, c4 D/57
# [8] = Table 2a, patient/age c1 A/61, c2 B/78, c3 C/63, c4 D/57
# [9] = Table 2b, patient/age c1 E, c2 F, c3 G, c4 H
# [10] = Table 3a, patient/age c1 A/62, c2 B/78, c3 C/63, c4 D/57
# [11] = Table 3b, patient/age c1 E, c2 F, c3 G, c4 H
structure (smiles),measurement,setting,value
CN(Cc1cnc2nc(N)nc(N)c2n1)c1ccc(C(=O)N[C@@H](CCC(=O)O)C(=O)O)cc1 [Methotrexate],serum folate level,[1],variably decreased
Nc1nc2ncc(CNc3ccc(C(=O)N[C@@H](CCC(=O)O)C(=O)O)cc3)nc2c(=O)[nH]1 [folic acid],anemia and macrocytosis after folic acid supplementation,"[2]; Patient A on olaparib, oral folic acid 1 mg daily",improved
same,Hgb after folic acid supplementation,"[2]; Patient B, two weeks after starting folic acid 1 mg daily, no longer required blood transfusions",markedly improved
same,folic acid level after supplementation,"[2]; Patient C on olaparib, two weeks of folic acid 1 mg daily, minimally increased from prior value",2.9 ng/mL
same,folic acid level after supplementation,"[2]; Patient C, folic acid supplementation increased to 2 mg TID",normalized
same,Hgb stabilized after supplementation,"[2]; Patient C, folic acid supplementation increased to 2 mg TID, olaparib briefly held",around 9 g/dL
same,folic acid level after supplementation,"[2]; Patient D on olaparib, folic acid 1 mg daily",subsequent improvement
same,Response to folic acid supplementation,"[2]; Table 1, patient/age c1 A/61, c2 B/78, c3 C/63, c4 D/57, improvement of folic acid level to within the reference range (≥7.0 ng/mL)",Yes
same,Response to folic acid supplementation,"[2]; Table 2a, patient/age c1 A/61, c2 B/78, c3 C/63, c4 D/57, improvement of folic acid level to within the reference range (≥7.0 ng/mL)",Yes and No
same,Response to folic acid supplementation,"[2]; Table 2b, patient/age c1 E, c2 F, c3 G, c4 H, improvement of folic acid level to within the reference range (≥7.0 ng/mL)",Yes
same,Response to folic acid supplementation,"[2]; Table 3a, patient/age c1 A/62, c2 B/78, c3 C/63, c4 D/57, improvement of folic acid level to within reference range",Yes
same,Response to folic acid supplementation,"[2]; Table 3b, patient/age c2, improvement of folic acid level to within reference range",Yes
same,correction of olaparib-induced folic acid deficiency,[2]; folic acid supplementation at variable doses,can correct
"O=C(c1cc(Cc2n[nH]c(=O)c3ccccc23)ccc1F)N1CCN(C(=O)C2CC2)CC1 [olaparib, 4-[(3-[(4-cyclopropylcarbonyl)piperazin-4-yl]carbonyl)-4-fluorophenyl]methyl(2H)-phthalazin-1-one]","myelodysplastic syndrome/Acute Myeloid Leukemia, olaparib-treated patients",[3]; Olaparib PI,2%
same,"adverse reactions leading to discontinuation of olaparib, patients",[3]; clinical trials (Olaparib PI),9%
same,"adverse reactions leading to dose interruptions, patients",[3]; clinical trials (Olaparib PI),26%
same,"adverse reactions leading to dose reductions, patients",[3]; clinical trials (Olaparib PI),15%
same,patients who developed transfusion-dependent anemia,"[4]; 4 cases, in the course of treatment with olaparib",Three of the four
same,hgb (severe anemia),"[4]; Case report, Patient A, after 5 weeks of olaparib therapy, requiring blood transfusion",6.6 g/dL
same,MCV (macrocytic anemia),"[4]; Case report, Patient A, at the time of Hematology evaluation",110.7 fL
same,Hgb (macrocytic anemia),"[4]; Case report, Patient A, at the time of Hematology evaluation, olaparib reduced to 100 mg BID",9.0 g/dL
same,Hgb (acute decrease),"[4]; Patient B, five weeks after starting olaparib, from 8 g/dL, requiring blood transfusion",6.8 g/dL
same,Hgb (further decrease),"[4]; Patient C on olaparib, two weeks after start of folic acid 1 mg daily, requiring blood transfusion",6.3 g/dL
same,Hgb (drop in baseline),"[4]; Patient C, approximately 4 weeks after starting olaparib, from 14 g/dL",10 g/dL
same,Hgb (mild anemia),"[4]; Patient D, while on olaparib for 6 months",9 to 10 g/dL
same,Dose Reduction or Delay of Olaparib/Cause,"[4]; Table 1, patient/age c1 A/61, c2 B/78, c3 C/63, c4 D/57, cause of dose change",anemia
same,Dose Reduction or Delay of Olaparib/Cause,"[4]; Table 1, patient/age c1 A/61, c2 B/78, c3 C/63, c4 D/57, dose reduced or delayed",Yes/ and No
same,Other Hematologic Abnormalities,"[4]; Table 1, patient/age c1 A/61, c2 B/78, c3 C/63, c4 D/57, noted at time of initial Hematology assessment",Leukopenia and None and Thrombo-
same,Hgb Nadir,"[4]; Table 1, patient/age c1 A/61, c2 B/78, c3 C/63, c4 D/57, on olaparib, reference range 12.0-16.0 g/dL",6.6 g⁻¹ dL⁻¹ and 6.3 g⁻¹ dL⁻¹ and 8.8 g⁻¹ dL⁻¹
same,MCV Nadir,"[4]; Table 1, patient/age c1 A/61, c2 B/78, c3 C/63, c4 D/57, on olaparib, reference range 82.0-103.0 fL",110.7 fL and 102.0 fL and 91.6* fL and 98.1 fL
same,Transfusion requirement,[4]; [7],Yes and No
same,Dose Reduction or Delay of Olaparib/Cause,[4]; [8],"Yes, anemia and Yes, and No and anemia"
same,Other Hematologic Abnormalities,"[4]; Table 2a, patient/age c1 A/61, c2 B/78, c3 C/63, c4 D/57, noted at time of initial Hematology assessment",Leukopenia; and None and Thrombo-
same,Hgb Nadir,"[4]; Table 2a, patient/age c1 A/61, c2 B/78, c3 C/63, c4 D/57, on olaparib, reference range 12.0-16.0 g/dL",6.6 g⁻¹ dL⁻¹ and 6.3 g⁻¹ dL⁻¹ and 8.8 g⁻¹ dL⁻¹
same,MCV Nadir,"[4]; Table 2a, patient/age c1 A/61, c2 B/78, c3 C/63, c4 D/57, on olaparib, reference range 82.0-103.0 fL",110.7 fL and 102.0 fL and 91.6* fL and 98.1 fL
same,Transfusion requirement,[4]; [8],Yes and No
same,Dose Reduction or Delay of Olaparib/Cause,[4]; [9],"No and Yes, neutropenia, and Yes, folic acid and anemia, fatigue, and dyspnea"
same,Other Hematologic Abnormalities,"[4]; Table 2b, patient/age c1 E, c2 F, c3 G, c4 H, noted at time of initial Hematology assessment",Leukopenia;; also recorded: Leukopenia; also recorded: Thrombocytopenia
same,MCV Nadir,"[4]; Table 2b, patient/age c1 E, c2 F, c3 G, c4 H, on olaparib, reference range 82.0-103.0 fL",112.0 fL and 115.8 fL and 93.2 fL and 98.9 fL
same,Transfusion requirement,[4]; [9],No and Yes
same,Dose Reduction or Delay of Olaparib/Cause,[4]; [10],Yes/anemia and No
same,Hgb Nadir,"[4]; Table 3a, patient/age c1 A/62, c2 B/78, c3 C/63, c4 D/57, lowest value documented while receiving olaparib, reference range 12.0 to 16.0 g/dL",6.6 g⁻¹ dL⁻¹ and 6.3 g⁻¹ dL⁻¹ and 8.8 g⁻¹ dL⁻¹
same,Other Hematologic Abnormalities,"[4]; Table 3a, patient/age c1 A/62, c2 B/78, c3 C/63, c4 D/57, noted at time of initial hematologic assessment",Thrombo- and Leukopenia; and None
same,Transfusion required,[4]; [10],Yes and No
same,MCV Nadir,"[4]; Table 3a, patient/age c1 A/62, c2 B/78, c3 C/63, c4 D/57, while receiving olaparib, reference range 82.0 to 103.0 fL",110.7 fL and 102.0 fL and 91.6 fL and 98.1 fL
same,Hgb Nadir,"[4]; Table 3b, patient/age c1 E, c2 F (200 mg once per day), c3 G, c4 H (metastatic breast cancer), lowest value while receiving olaparib, reference range 12.0 to 16.0 g/dL",10.8 g⁻¹ dL⁻¹ and 8.1 g⁻¹ dL⁻¹ and 12.2 g⁻¹ dL⁻¹ and 10.4 g⁻¹ dL⁻¹
same,Dose Reduction or Delay of Olaparib/Cause,"[4]; Table 3b, patient/age c1 E, c2 F (reduced dose 200 mg once per day from the onset), c3 G/52, c4 H/35",No and No^k and Yes/rash
same,Other Hematologic Abnormalities,"[4]; Table 3b, patient/age c1 E, c2 F, c3 G, c4 H, noted at time of initial hematologic assessment",Leukopenia; and None and Thrombo-
same,Transfusion required,[4]; [11],No
same,MCV Nadir,"[4]; Table 3b, patient/age c1 E, c2 F, c3 G, c4 H, while receiving olaparib, reference range 82.0 to 103.0 fL",105.6 fL and 103.1 fL and 93.5 fL and 85.8 fL
same,Treatment outcome: discontinued because of,ovarian cancer; [10],progression; also recorded: refractory anemia; also recorded: diarrhea
same,Treatment outcome: treatment stopped after,"ovarian cancer; Table 3b, patient E/73",after 20 days
same,Treatment outcome: discontinued because of / status,ovarian cancer; [11],months; ongoing; also recorded: progression
same,folic acid level (severe folic acid deficiency) in three additional patients,"[5]; 3 other women, after taking olaparib for at least four weeks",< 1.6 ng/mL
same,folate level,"[5]; Case report, Patient A on olaparib, Normal: 7-31.4 ng/mL",< 1.6 ng/mL
same,folic acid level (severe folic acid deficiency),[5]; Patient B on olaparib,< 1.6 ng/mL
same,folic acid level (severe folic acid deficiency),"[5]; Patient C, approximately 4 weeks after starting olaparib",< 1.6 ng/mL
same,folic acid level (severely low),[5]; Patient D on olaparib,1.6 ng/mL
same,Folic Acid Level,[5]; [7],<1.6 ng/mL and 1.6 ng/mL
same,Folic Acid Level,[5]; [8],<1.6 ng/mL and 1.6 ng/mL
same,Folic Acid Level,[5]; [9],4.9 ng/mL and 5.2 ng/mL and 3.7 ng/mL and 6.2 ng/mL
same,folate level after initiation of olaparib,[5]; available laboratory data of the case series,drops precipitously within weeks
same,progression-free survival,[6]; advanced ovarian cancer,significantly prolonged
same,overall response rate (ORR),"[6]; gBRCA-mutated advanced ovarian cancer, three or more previous lines of chemotherapy",34%
